Values quoted from earlier work in US12390432B2, “Methods for treating allan-herndon-dudley syndrome” (PriZm, LLC, priority 2022, dated 2025).

Conditions: literature report, Groeneweg et al. Lancet Diabetes Endocrinol. 2019; cited from earlier work

O=C(O)Cc1cc(I)c(Oc2ccc(O)c(I)c2)c(I)c1 [TRIAC, triiodothyroacetic acid]
thyroxine (T4) serum levels: significantly reduce
